Assay results as given in paper PMC8880564, “Design, Synthesis, and Biological Evaluation of a Novel VEGFR-2 Inhibitor Based on a 1,2,5-Oxadiazole-2-Oxide Scaffold with MAPK Signaling Pathway Inhibition” (Pharmaceuticals, 2022).

Experiments:
Assay type in all cases: cell-based
[1] = system: NCI-59 human cancer cell lines; assay: NCI-60 one-dose SRB screening, full panel and subpanels; conditions: for activity at 10 µM / inhibition at 10 µM: Homo sapiens; for activity at 10 µM: mean over the full panel, 10 µM one dose, 48 h, SRB, read-out: growth percentage, Mean; for inhibition at 10 µM: read-out: mean growth inhibition % (MGI%, GI%)
Procedure: (§1) The structures of the synthesized compounds 6a–h, 12a–c, 11, 13a–c, and 14a–c were submitted to the National Cancer Institute’s Developmental Therapeutics Program (NCI-DTP), and all of them were selected for preliminary in vitro anticancer activity screening against NCI-59 human cancer cell lines at a concentration of 10 µM, using the sulforhodamine B (SRB) assay to determine the growth percentage and cell viability.
(§2) The in vitro NCI-60 cell line screening assay was conducted at the National Cancer Institute (NCI), Bethesda, USA against 59 cancer cell lines representing 9 types of cancers, as reported earlier. Briefly, the human cancer cell lines were grown in RPMI 1640 medium containing 5% fetal bovine serum and 2 mM L-glutamine and inoculated into 96-well microtiter plates in 100 μL (5000 to 40,000 cells/well). Then, the plates were incubated at 37 °C, 5% CO2, 95% air, and 100% relative humidity for 24 h. After that, two plates of each cell line were fixed in situ with TCA, to represent cell population at time zero (Tz). The tested compounds were dissolved in DMSO at 400-fold and added so that the final concentration became 10 μM. The plates were then incubated for an additional 48 h followed by the addition of cold TCA to terminate the assay in case of adherent cells. Then, the cells were fixed in situ by cold 50% (w/v) TCA (50 μL; final concentration, 10% TCA) and incubated for 1 h at 4 °C. After discarding the supernatant, the plates were washed 5 times with tap water and air dried. Sulforhodamine B (SRB) solution (100 μL) at 0.4% (w/v) in 1% HOAc was added to each well, and plates were incubated for 10 min. at rt. Then, washing with 1% acetic acid was conducted 5 times to remove the unbound dye followed by air drying. After that, 10 mM trizma base was added to solubilize the bound stain, and the absorbance was read on an automated plate reader at a wavelength of 515 nm. On the other hand, the methodology for suspension cells was the same except that 50 μL of 80% TCA (final concentration, 16% TCA) was gently added to terminate the assay by fixing settled cells at the bottom of the wells. Percentage growth inhibition (GI%) was calculated as follows:
(§3) Growth percentage=Ti (test growth in the presence of compound at 10 µM )−Tz (time zero)/C (control growth)−Tz (time zero)×100 for Ti ≥ Tz;
(§4) Growth percentage=Ti (test growth in the presence of compound at 10 µM )−Tz (time zero)/Tz (time zero)×100 for Ti < Tz.
(§5) where values of 100, 40, 0, −40, and −100 mean no GI, 60% GI, no net G, 40% lethality, and all cells are dead, respectively.
Data are expressed as a one-dose mean graph of growth percentages including the mean, delta, and range.

HOP-62 = assay: NCI-60 one-dose SRB screening; conditions: Homo sapiens, HOP-62, Non-Small Cell Lung Cancer, 10 µM one dose, 48 h, read-out: growth percentage
Procedure: as §1, §2, §3, §4, §5

SW-620 = assay: NCI-60 one-dose SRB screening; conditions: Homo sapiens, SW-620, Colon Cancer, 10 µM one dose, 48 h, read-out: growth percentage
Procedure: as §1, §2, §3, §4, §5

LOX IMVI = assay: NCI-60 one-dose SRB screening; conditions: Homo sapiens, Melanoma, 10 µM one dose, 48 h, read-out: growth percentage
Procedure: as §1, §2, §3, §4, §5

SN12C = assay: NCI-60 one-dose SRB screening; conditions: Homo sapiens, Renal Cancer, 10 µM one dose, 48 h, read-out: growth percentage
Procedure: as §1, §2, §3, §4, §5

M14 = assay: NCI-60 one-dose SRB screening; conditions: Homo sapiens, M14, Melanoma, 10 µM one dose, 48 h, read-out: growth percentage
Procedure: as §1, §2, §3, §4, §5

NCI/ADR-RES = assay: NCI-60 one-dose SRB screening; conditions: Homo sapiens, Ovarian Cancer, 10 µM one dose, 48 h, read-out: growth percentage
Procedure: as §1, §2, §3, §4, §5

A498 = assay: NCI-60 one-dose SRB screening; conditions: Homo sapiens, A498, Renal Cancer, 10 µM one dose, 48 h, read-out: growth percentage
Procedure: as §1, §2, §3, §4, §5

MDA-MB-468 = assay: NCI-60 one-dose SRB screening; conditions: Homo sapiens, MDA-MB-468, Breast Cancer, 10 µM one dose, 48 h, read-out: growth percentage
Procedure: as §1, §2, §3, §4, §5

MOLT-4 = assay: NCI-60 one-dose SRB screening; conditions: Homo sapiens, MOLT-4, Leukemia, 10 µM one dose, 48 h, read-out: growth percentage
Procedure: as §1, §2, §3, §4, §5

IGROV1 = assay: NCI-60 one-dose SRB screening; conditions: Homo sapiens, IGROV-1, IGROV1, Ovarian Cancer, 10 µM one dose, 48 h, read-out: growth percentage
Procedure: as §1, §2, §3, §4, §5

NCI-H522 = assay: NCI-60 one-dose SRB screening; conditions: Homo sapiens, NCI-H522, Non-Small Cell Lung Cancer, 10 µM one dose, 48 h, read-out: growth percentage
Procedure: as §1, §2, §3, §4, §5

SNB-19 = assay: NCI-60 one-dose SRB screening; conditions: Homo sapiens, SNB-19, CNS Cancer, 10 µM one dose, 48 h, read-out: growth percentage
Procedure: as §1, §2, §3, §4, §5

MCF7 = assay: NCI-60 one-dose SRB screening; conditions: Homo sapiens, MCF7, Breast Cancer, 10 µM one dose, 48 h, read-out: growth percentage
Procedure: as §1, §2, §3, §4, §5

T-47D = assay: NCI-60 one-dose SRB screening; conditions: Homo sapiens, T47D, Breast Cancer, 10 µM one dose, 48 h, read-out: growth percentage
Procedure: as §1, §2, §3, §4, §5

SK-MEL-2 = assay: NCI-60 one-dose SRB screening; conditions: Homo sapiens, SK-MEL-2, Melanoma, 10 µM one dose, 48 h, read-out: growth percentage
Procedure: as §1, §2, §3, §4, §5

ACHN = assay: NCI-60 one-dose SRB screening; conditions: Homo sapiens, Renal Cancer, 10 µM one dose, 48 h, read-out: growth percentage
Procedure: as §1, §2, §3, §4, §5

NCI-H322M = assay: NCI-60 one-dose SRB screening; conditions: Homo sapiens, Non-Small Cell Lung Cancer, 10 µM one dose, 48 h, read-out: growth percentage
Procedure: as §1, §2, §3, §4, §5

BT-549 = assay: NCI-60 one-dose SRB screening; conditions: Homo sapiens, BT-549, Breast Cancer, 10 µM one dose, 48 h, read-out: growth percentage
Procedure: as §1, §2, §3, §4, §5

OVCAR-8 = assay: NCI-60 one-dose SRB screening; conditions: Homo sapiens, OVCAR-8, Ovarian Cancer, 10 µM one dose, 48 h, read-out: growth percentage
Procedure: as §1, §2, §3, §4, §5

HT29 = assay: NCI-60 one-dose SRB screening; conditions: Homo sapiens, HT-29, HT29, Colon Cancer, 10 µM one dose, 48 h, read-out: growth percentage
Procedure: as §1, §2, §3, §4, §5

SK-OV-3 = assay: NCI-60 one-dose SRB screening; conditions: Homo sapiens, SK-OV-3, Ovarian Cancer, 10 µM one dose, 48 h, read-out: growth percentage
Procedure: as §1, §2, §3, §4, §5

| SMILES | activity at 10 µM [1] | activity at 10 µM (HOP-62) | activity at 10 µM (SW-620) | activity at 10 µM (LOX IMVI) | activity at 10 µM (SN12C) | activity at 10 µM (M14) | activity at 10 µM (NCI/ADR-RES) | activity at 10 µM (A498) | activity at 10 µM (MDA-MB-468) | activity at 10 µM (MOLT-4) | activity at 10 µM (IGROV1) | activity at 10 µM (NCI-H522) | activity at 10 µM (SNB-19) | activity at 10 µM (MCF7) | activity at 10 µM (T-47D) | activity at 10 µM (SK-MEL-2) | activity at 10 µM (ACHN) | activity at 10 µM (NCI-H322M) | activity at 10 µM (BT-549) | activity at 10 µM (OVCAR-8) | other results |
| --- | --- | --- | --- | --- | --- | --- | --- | --- | --- | --- | --- | --- | --- | --- | --- | --- | --- | --- | --- | --- | --- |
| Cc1nn(-c2ccc(Br)cc2)c2nc(C(F)(F)F)nc(Nc3ccc(NCc4c(-c5ccccc5)no[n+]4[O-])cc3)c12 [12c, 3-(((4-((1-(4-bromophenyl)-3-methyl-6-(trifluoromethyl)-1H-pyrazolo[3,4-d]pyrimidin-4-yl)amino)phenyl)amino)methyl)-4-phenyl-1,2,5-oxadiazole 2-oxide] | 74.8% | 68.3% | 79.7% | 48.5% | 76.2% | 71.9% | 88.8% | 117% | 84.2% | 60.3% | 59.6% | 83.5% | 84.1% | 68.2% | 85.6% | 104% | 68.1% | 85.1% | 97.4% | 75.8% | activity at 10 µM (HT29): 70.4%; activity at 10 µM (SK-OV-3): 82.7% |
| O=c1[nH]c(CCl)nc2c1cnn2-c1ccccc1 [13a] | 94.2% | 125% | 102% | 103% | 99.8% | 110% | 104% | 77.9% | 96.6% | 104% | 96.2% | 103% | 96.3% | 79.5% | 95.2% | 104% | 96.7% | 101% | 94.1% | 114% | activity at 10 µM (HT29): 115%; activity at 10 µM (SK-OV-3): 106% |
| Cc1nn(-c2ccccc2)c2nc(CCl)[nH]c(=O)c12 [13b] | 82.8% | 98.3% | 85.1% | 101% | 95.7% | 103% | 102% | 4.55% | 26.6% | 79.6% | 96.2% | 89.8% | 89.4% | 16.4% | 66% | 97.9% | 90.2% | 103% | 100% | 112% | activity at 10 µM (HT29): 106%; activity at 10 µM (SK-OV-3): 105% |
| O=c1[nH]c(CNc2ccc(NCc3c(-c4ccccc4)no[n+]3[O-])cc2)nc2c1cnn2-c1ccccc1 [14a, 3-(((4-(((4-oxo-1-phenyl-4,5-dihydro-1H-pyrazolo[3,4-d]pyrimidin-6-yl)methyl)amino)phenyl)amino)methyl)-4-phenyl-1,2,5-oxadiazole 2-oxide] | 72.1% | 105% | 92.8% | 85.5% | 79% | 80% | 79.4% | 86% | 33.2% | 44% | 52.5% | 60.8% | 94% | 50% | 42.5% | 77.8% | 70.4% | 80.2% | 62.1% | 109% | inhibition at 10 µM ([1]; full NCI-59 panel, 10 µM): 27.9%; activity at 10 µM (HT29): 92%; activity at 10 µM (SK-OV-3): 60.6% |
| Cc1nn(-c2ccccc2)c2nc(CNc3ccc(NCc4c(-c5ccccc5)no[n+]4[O-])cc3)[nH]c(=O)c12 [14b, 3-(((4-(((3-methyl-4-oxo-1-phenyl-4,5-dihydro-1H-pyrazolo[3,4-d]pyrimidin-6-yl)methyl)amino)phenyl)amino)methyl)-4-phenyl-1,2,5-oxadiazole 2-oxide] | 91.8% | 110% | 110% | 97.6% | 89.4% | 106% | 92.4% | 97.9% | 66.9% | 61.5% | 64.4% | 80.9% | 101% | 77% | 75.5% | 100% | 88.8% | 89% | 95.9% | 117% | inhibition at 10 µM ([1]; full NCI-59 panel, 10 µM): 8.22%; activity at 10 µM (HT29): 107%; activity at 10 µM (SK-OV-3): 85.4% |
| Cc1nn(-c2ccc(Br)cc2)c2nc(CNc3ccc(NCc4c(-c5ccccc5)no[n+]4[O-])cc3)[nH]c(=O)c12 [14c, 3-(((4-(((1-(4-bromophenyl)-3-methyl-4-oxo-4,5-dihydro-1H-pyrazolo[3,4-d]pyrimidin-6-yl)methyl)amino)phenyl)amino)methyl)-4-phenyl-1,2,5-oxadiazole 2-oxide] | 103% | 116% | 111% | 102% | 98.8% | 107% | 101% | 104% | 94.4% | 87.2% | 85.6% | 90.8% | 102% | 88.1% | 103% | 107% | 96.9% | 104% | 98.1% | 112% | enhancement of the growth percentage (mean) ([1]; full NCI-59 panel, 10 µM): 3.35%; activity at 10 µM (HT29): 110%; activity at 10 µM (SK-OV-3): 107% |
